Assay results as given in US10543193B2, “Processes useful for the preparation of 1-[3-(4-bromo-2-methyl-2H-pyrazol-3-yl)-4-methoxy-phenyl]-3-(2,4-difluoro-phenyl)-urea and crystalline forms related thereto” (ARENA PHARMACEUTICALS, INC., priority 2008, dated 2020).
“Also recorded” adds a separate entry of the source.

Columns and labels:
[1] = Effect of milling and compression upon APD125 Form I (PXRD); format: physicochemical
Experimental: Micronized APD125 Form I, was ground using a mortar and pestle, with samples withdrawn at 1-min, 5-min and 10-min time points for PXRD analyses to evaluate the impact of grinding upon the solid-state form of APD125 Form I. PXRD patterns were obtained pre- and post-milling. Additionally, micronized APD125 Form I, was compressed at 2 kp, 5 kp and 10 kp for 1 min per sample using a Carver press. The samples were then removed from the Carver press and lightly broken up using a mortar and pestle, prior to PXRD analysis to evaluate the impact of compression upon the solid-state form of APD125 Form I. PXRD patterns were obtained pre- and post-compression.
(§1) PXRD measurements were obtained using a Philips (PANalytical) X'Pert PRO theta/theta diffractometer (EQ 0233) equipped with an X'Celerator RTMS detector and utilizing copper Kα radiation, operating at 45 kV and 40 mA. The instrument radius was 239.5 mm, the mask filter was 20 mm, the soller slit was 0.04 radians, and a nickel filter and sample spinning were used during data acquisition. The application and instrument control software used were X'Pert Data Collector®, version 2.0c and XPERT-PRO®, version 1.6, respectively. The samples were scanned from 5° to 40°2θ in continuous mode, using a step size of 0.0167°2θ.

[2] = Methyl cellulose optimization: Form I to Form II conversion in water pastes (PXRD); format: physicochemical
Experimental: In a small scintillation vial, 152.13 mg of micronized APD125 Form I, was spiked with sufficient deionized water to make a paste; the weight of the water added, 844.60 mg, was recorded, and the resulting mixture was stirred using a spatula to obtain a paste. The resulting sample, post-collection of an initial PXRD pattern, was capped, wrapped in tinfoil and stored at 40° C. until the next day, when a second PXRD pattern was obtained.
Using another small scintillation vial, 2.1183 g of micronized APD125 Form I, was mixed with 3.3619 g of a 0.5% w/v methyl cellulose to obtain a paste, which was immediately sampled for PXRD analysis to verify starting APD125 solid-state form, post-methyl cellulose addition. The remaining sample in the scintillation vial was split into two portions, placed in capped, parafilm-wrapped scintillation vials, which were then wrapped in tinfoil and stored at 40° C. and room temperature, respectively. PXRD patterns were collected at initial (t=0), 2-day and 16-day time points for each sample.
APD125 micronized Form I/PVP (1:8) blend, weighing 3.0081 g and containing 0.5% w/w methyl cellulose, was mixed with 3.71277 g of water to form a paste. After sampling the paste for an initial PXRD pattern, the remaining paste was split into two portions, placed in capped, parafilm-wrapped scintillation vials, which were then wrapped in tinfoil and stored at 40° C. and room temperature, respectively. PXRD patterns were collected at initial (t=0), 1-day, 7-day and 21-day time points.
For each blend, materials were dispensed (minus magnesium stearate) into a glass vial and blended for about 5 minutes. Magnesium stearate was added and the mixture was blended an additional 2 minutes. The final blend was compacted into standard round concave tablets ( 5/16″ diameter) with a total tablet weight of 200 mg and hardness of 10 kp using a Carver press. For each batch of tablets, several were crushed using a mortar and pestle to obtain a fine powder, from which a small sample was taken for PXRD analysis to confirm the initial APD125 polymorphic form. The remaining powder was weighed into a Qorpak® bottle, and ca. 50% w/w deionized water was added. The resulting mixture was stirred using a micro-spatula to wet the powder and form a paste. A Teflon® lid was screwed on tightly, and the prepared samples were stored in a 40° C. oven.
as §1, with “respectively. The API-based paste samples were” for “respectively. The samples were”, “size of 0.0167°2θ and a counting time of 40.005 seconds. The tablet granulation samples were scanned from 2° to 15°2θ in continuous mode, using a step size of 0.0167°2θ and a counting time of 1063.625 s.” for “size of 0.0167°2θ.”

[3] = test system: Healthy Adults; assay: Phase 1 trials: waking EEG; format: in vivo, humans
[4] = test system: normal volunteers; assay: Afternoon nap model of insomnia in normal volunteers; format: in vivo, humans
From the text: Sleep onset latency was not decreased by APD125. In the afternoon nap model, APD125 decreased microarousals, the number of sleep stage shifts and number of awakenings after sleep onset.

[5] = test system: insomnia patients; assay: Phase 2 trial: sleep maintenance; format: in vivo, humans
From the text: The data from the APD125 Phase 2 study are consistent with Phase 1 data and support further development of APD125 for the treatment of insomnia patients who have difficulty maintaining sleep.

Row | SMILES | PXRD pattern after compression ([1]; compressed at 2 kp, 5 kp and 10 kp vs uncompressed) | PXRD pattern after grinding ([1]; mortar and pestle, 1 minute, 5 minutes and 10 minutes, listed as micronized APD125 Form I) | conversion to Form II (PXRD) ([2]; aqueous 0.5% w/w methyl cellulose, 40° C., after 16 days) | PXRD pattern (FIG. 8 legend) ([2]; aqueous 0.5% w/w methyl cellulose, room temperature and 40° C., after 16 days) | time to conversion to Form II (PXRD) ([2]; paste in water alone at 40° C.) [h] | PXRD pattern (FIG. 9 legend) ([2]; paste in water alone at room temperature and 40° C. after 24 h) | conversion to Form II (PXRD) ([2]; suspended in aqueous 0.5% w/w methyl cellulose, room temperature, 21 days) | dose with maximal effects on waking EEG [3] [mg] | effects on waking EEG [3] | time of peak effects on waking EEG after dosing [3] [h] | Sleep onset latency [4] | microarousals, number of sleep stage shifts and number of awakenings after sleep onset [4] | slow wave sleep and associated parameters ([4]; primarily during the early part of sleep) | next day cognitive effects [5] | measurements of sleep maintenance ([5]; compared to placebo)
1 | COc1ccc(NC(=O)Nc2ccc(F)cc2F)cc1-c1c(Br)cnn1C [APD125 Form I, 1-[3-(4-bromo-2-methyl-2H-pyrazol-3-yl)-4-methoxy-phenyl]-3-(2,4-difluoro-phenyl)-urea] | consistent with APD125 Form I; also recorded: all substantially comprise Form I | No significant changes in the PXRD patterns; also recorded: all substantially comprise Form I | no evidence of conversion to Form II | substantially converted to Form II | ≤ 24 | substantially converted to Form II | did not convert to Form II |  |  |  |  |  |  |  | 
2 | COc1ccc(NC(=O)Nc2ccc(F)cc2F)cc1-c1c(Br)cnn1C [Compound I, 1-[3-(4-bromo-2-methyl-2H-pyrazol-3-yl)-4-methoxy-phenyl]-3-(2,4-difluoro-phenyl)-urea] |  |  |  |  |  |  |  | 40 to 80 | vigilance-lowering effects | 2 to 4 | not decreased | decreased | increased slow wave sleep and associated parameters in a dose-dependent manner | without any limiting next day cognitive effects | statistically significant improvements
